Results published in US20190358196A1, “PI 4-KINASE INHIBITOR AS A THERAPEUTIC FOR VIRAL HEPATITIS, CANCER, MALARIA. AUTOIMMUNE DISORDERS AND INFLAMMATION, AND A RADIOSENSITIZER AND IMMUNOSUPPRESSANT” (priority 2016, published 2019).

Columns and labels:
[1] = molecular target: PI4Ka (Homo sapiens, UniProt P42356); test: HotSpot lipid kinase inhibition assay
[2] = tested on: cell culture-derived HCV (HCVcc)

Chain of PI4Ka (P42356 whole entry): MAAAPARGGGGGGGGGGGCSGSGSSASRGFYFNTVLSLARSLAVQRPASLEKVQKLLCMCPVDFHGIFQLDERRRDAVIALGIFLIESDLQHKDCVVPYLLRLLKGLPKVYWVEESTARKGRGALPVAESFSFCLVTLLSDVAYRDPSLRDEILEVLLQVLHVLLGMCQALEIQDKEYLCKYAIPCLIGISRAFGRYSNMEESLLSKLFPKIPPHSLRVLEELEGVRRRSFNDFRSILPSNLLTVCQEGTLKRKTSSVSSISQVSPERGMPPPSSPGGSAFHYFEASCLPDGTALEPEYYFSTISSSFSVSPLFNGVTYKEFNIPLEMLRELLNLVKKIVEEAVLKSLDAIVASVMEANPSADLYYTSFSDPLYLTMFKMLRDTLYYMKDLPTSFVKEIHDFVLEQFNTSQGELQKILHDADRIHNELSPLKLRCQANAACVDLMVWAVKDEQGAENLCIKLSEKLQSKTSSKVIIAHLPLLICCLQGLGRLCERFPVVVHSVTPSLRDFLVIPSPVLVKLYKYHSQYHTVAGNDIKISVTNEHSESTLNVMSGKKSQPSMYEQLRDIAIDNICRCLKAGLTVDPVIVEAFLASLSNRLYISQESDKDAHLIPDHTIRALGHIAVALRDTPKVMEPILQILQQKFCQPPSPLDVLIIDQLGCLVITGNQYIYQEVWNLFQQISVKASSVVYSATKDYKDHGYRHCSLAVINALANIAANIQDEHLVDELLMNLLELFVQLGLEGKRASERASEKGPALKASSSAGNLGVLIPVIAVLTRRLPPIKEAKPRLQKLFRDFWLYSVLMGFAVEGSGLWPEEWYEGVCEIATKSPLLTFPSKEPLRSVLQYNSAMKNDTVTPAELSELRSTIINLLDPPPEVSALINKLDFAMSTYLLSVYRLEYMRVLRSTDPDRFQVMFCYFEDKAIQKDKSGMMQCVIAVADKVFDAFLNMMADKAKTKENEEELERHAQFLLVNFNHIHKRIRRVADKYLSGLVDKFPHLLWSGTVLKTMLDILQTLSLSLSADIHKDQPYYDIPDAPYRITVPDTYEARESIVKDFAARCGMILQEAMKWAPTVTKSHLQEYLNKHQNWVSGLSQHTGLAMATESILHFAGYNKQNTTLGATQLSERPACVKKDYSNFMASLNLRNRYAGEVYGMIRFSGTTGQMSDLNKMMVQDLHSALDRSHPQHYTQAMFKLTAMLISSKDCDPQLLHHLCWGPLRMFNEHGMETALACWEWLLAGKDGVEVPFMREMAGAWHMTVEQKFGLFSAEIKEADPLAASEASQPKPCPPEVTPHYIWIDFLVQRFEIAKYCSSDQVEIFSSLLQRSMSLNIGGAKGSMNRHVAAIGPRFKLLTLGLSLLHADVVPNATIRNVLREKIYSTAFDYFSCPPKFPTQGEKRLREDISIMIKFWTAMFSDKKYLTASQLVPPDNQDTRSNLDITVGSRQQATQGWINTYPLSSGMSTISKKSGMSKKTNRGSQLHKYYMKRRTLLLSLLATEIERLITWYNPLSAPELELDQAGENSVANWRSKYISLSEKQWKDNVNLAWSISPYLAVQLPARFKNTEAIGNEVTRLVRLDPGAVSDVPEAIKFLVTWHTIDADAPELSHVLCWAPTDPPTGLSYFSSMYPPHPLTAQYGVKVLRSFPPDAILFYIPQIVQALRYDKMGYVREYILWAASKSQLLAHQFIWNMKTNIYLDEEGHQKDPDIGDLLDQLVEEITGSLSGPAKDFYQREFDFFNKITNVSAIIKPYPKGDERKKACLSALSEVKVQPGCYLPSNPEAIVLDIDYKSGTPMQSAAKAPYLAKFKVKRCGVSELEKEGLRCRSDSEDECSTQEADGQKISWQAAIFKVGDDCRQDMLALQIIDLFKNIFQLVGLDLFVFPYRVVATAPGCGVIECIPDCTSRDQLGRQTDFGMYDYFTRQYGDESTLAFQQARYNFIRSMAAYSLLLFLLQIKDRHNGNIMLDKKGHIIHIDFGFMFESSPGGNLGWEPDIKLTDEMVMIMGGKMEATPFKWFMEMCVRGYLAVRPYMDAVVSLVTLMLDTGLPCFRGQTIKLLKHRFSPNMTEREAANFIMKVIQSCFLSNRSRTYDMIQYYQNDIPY

| Compound | IC50 [1] [nM] | SI (CC50/EC50) [2] |
| --- | --- | --- |
| Oc1cccc(-c2nc(N3CCOCC3)c3oc4ncccc4c3n2)c1 [PI-103] | 322 | – |
| Human interferon alpha-2b [rIFNa-2b] | – | >15.9 |
